According to ChEMBL document CHEMBL3507680, “University of Dundee, Gates Library screen for HepG2 cell viability”:

Assay: Human HepG2 cell viability assay in 384 well format
Format: toxicity, cell-based
Design: dose 125 nL, time 70.5 hour; cytotoxicity at 70.5 h: concentration not given beside the values
Details: HepG2 cells, read-out: Inhibition

Point of comparison: `COCCOCCC(=O)N1CCC(c2ccccc2C)C1` (centres undefined), cytotoxicity at 70.5 h -4.21%. Against it:
- CSc1ccc(C(=O)N2CC(=O)N(Cc3cccs3)CC(O)C2)cc1 (centres undefined) — lower, -6.27%
- NS(=O)(=O)c1ccc(CC(=O)N2CCCC(n3cccn3)C2)cc1 (centres undefined) — lower, -7.64%
- FC(F)(F)c1nnc2n1CCN(c1nc(C3CC3)ns1)C2 — higher, -1.08%
- O=C(O)c1cc(/C=C/c2ccccc2)ncn1 — lower, -5.54%
- Cc1cccc2c1ccn2CC(=O)O — higher, 6.19%
- CN(C)C[C@@H]1C[C@@H]2CN(Cc3nccn3C)CC[C@@H]2N1CC1CC1 — higher, -0.157%
- Cc1oc(-c2ccco2)nc1CNC1CCCN(c2cccnn2)C1 (centres undefined) — lower, -9.89%
- CC(C)c1nc2c(n1C)CCN(Cc1cccc(OCC(N)=O)c1)C2 — higher, 0.112%
- CSCC[C@H](NC(=O)CCn1ccc2c(Br)cccc21)C(=O)O — lower, -16.3%
- Cc1ccn(CCNc2ncnc3c2CCN(Cc2ncc[nH]2)CC3)n1 — lower, -8.65%
- O=C1COC2(COCCN(Cc3cccnc3)C2)CN1c1ccccc1 (centres undefined) — higher, -0.932%
- c1ccc(Cc2noc(CN3CCCCC3Cn3cncn3)n2)cc1 (centres undefined) — higher, 11.2%
- CC(C)N(CC(N)=O)CC(=O)NCCc1c(F)cccc1F — higher, -1.87%
- CCc1ccc(NS(=O)(=O)CC2=NC(=O)n3cccc3C2=O)cc1 — lower, -5.39%
- O=C(Cn1cc(C(=O)O)ccc1=O)Nc1cc(F)ccc1F — lower, -9.56%
- CC(=O)N1CC(C)CN(C(=O)c2cccnc2C)c2ccccc21 (centres undefined) — lower, -7.8%
- CN(C)C(=O)CO[C@@H]1CC[C@H]2[C@H]1OCCN2c1ncccn1 — higher, 4.77%
- CC(C)c1ccc(CS(=O)(=O)Cc2nc(N)nc(N(C)C)n2)cc1 — lower, -6.09%
- CCc1nc(C2CCCN2Cc2nc(Cc3ccccc3)no2)no1 (centres undefined) — higher, -0.88%
- Fc1ccccc1C(CNc1ccncn1)N1CCCC1 (centres undefined) — lower, -8.28%
- CCc1noc(CN2CCOC3(CCCC3)C2)n1 — higher, -2.11%
- Cc1ccc(C(=O)N2Cc3c(CN4CCCCC4)nn(C)c3C2)cc1C — lower, -16.2%
- Cc1ccc(C2(CN3CCN(Cc4cncn4C)CC3)CC2)cc1 — higher, 12.6%
- CCOC(=O)CC1CCCCN1C(=O)c1cccc2ccnn12 (centres undefined) — lower, -6.11%
- COc1ccc(CNC(=O)c2ccc(=O)n(C)c2)cc1C — lower, -9.61%
- CCC(=O)N1CCC2(CC1)CC(N1CCOCC1)c1cc(C)ccc12 (centres undefined) — lower, -13.5%
- Cc1noc(COCC(=O)N2CCCCC2c2nccs2)n1 (centres undefined) — lower, -8.06%
- CC(C)Cc1cc(C(=O)N2CCCN(c3ncccn3)CC2)[nH]n1 — higher, -1.63%
- Cc1cc2nc(C(C)C)cc(NCCc3ccncc3)n2n1 — lower, -13.2%
- O=C(CCNCc1cccc(O)c1)N1CCc2sccc2C1 — lower, -7.91%
- O=C(Nc1ccc(Br)cc1F)c1ccc(N2CCCCC2)nn1 — higher, -3.25%
- Cn1nnnc1SCC1(O)CCCCC1 — lower, -5.84%
- N#CCCCS(=O)(=O)N1CCC(CSc2ccccc2)C1 (centres undefined) — lower, -9.53%
- CCOCCN1CCN(CC2(O)CCCCC2)CC1 — lower, -4.54%
- O=C1CC(c2ccccc2)C2(CCN(C(=O)c3ccncc3F)CC2)N1 (centres undefined) — lower, -5.44%
- c1ccc(Cn2cc3c(n2)C(COCC2CC2)OCC3)nc1 (centres undefined) — higher, 8.53%
- O=C1NCCO[C@H]2CN(C(=O)CC3Cc4ccccc4C3)CC[C@@H]12 — lower, -9.87%
- CCc1ccccc1CNC(=O)CNCC(F)(F)F — higher, -2.89%
- NC(=O)NC(=O)C(c1ccccc1)N1CCN(Cc2ccc(Cl)s2)CC1 (centres undefined) — higher, -3.49%
- CN(C)c1ccccc1CN1CCCCC1CNS(C)(=O)=O (centres undefined) — lower, -4.51%
- COC(=O)Nc1cccc(C(=O)N(C)Cc2cccc(O)c2)c1 — lower, -6.41%
- CN(C)C(=O)N[C@@H]1CN(S(C)(=O)=O)[C@@H]2CCCO[C@@H]21 — higher, 47.9%
- O=C(COc1ccccc1F)NCC(O)(c1ccccc1)C1CC1 (centres undefined) — lower, -13.8%
- O=C(NCc1ccco1)N1CCOC(c2ccccc2Cl)C1 (centres undefined) — lower, -15.6%
- COc1ccccc1C(=O)NCCC(=O)Nc1c(C)nn(C)c1C — lower, -12.6%
- CN(Cc1cccc(-n2cccn2)c1)C(=O)c1cccc(N(C)C)c1 — lower, -10.6%
- CCc1noc(CN2CCN(C(=O)c3ccccn3)CC2)n1 — lower, -7.01%
- Cc1cc(C)c(C(=O)N2CCn3nc(C(=O)NCCN(C)C)cc3C2)[nH]1 — higher, -3.17%
- NC(=O)CN1CCC(NC(=O)COCCOc2ccccc2)CC1 — lower, -4.83%
- Cc1nc(N2CCN(C)CC2)ncc1C(=O)N1CC(C)(C)C(C)(O)C1 (centres undefined) — higher, 14.1%
- O=c1ccc(-c2cccs2)nn1CN1CCc2ccccc2C1 — lower, -23.7%
- Cc1ccccc1-c1noc(C2CC(C(C)C)=NO2)n1 (centres undefined) — higher, -0.419%
- Cc1ccc(CN(C)Cc2cnc(N3CCOCC3)s2)o1 — higher, 22.4%
- Cc1cc(NC(=O)Cn2ncc(SCC(N)=O)c(Cl)c2=O)ccc1Br — lower, -5.33%
- CCOC(=O)CN1CCC2(CC1)CC(=O)c1ccc(OC)cc1O2 — higher, 2.89%
- Cc1noc(C)c1CN1CC[C@H]2OCC[C@@]2(C(=O)N2CCCO2)C1 — lower, -7.09%
- CC(=O)N1CCCCCC1C1CCN(Cc2nc(C3CC3)no2)CC1 (centres undefined) — higher, 0.683%
- Cc1noc([C@@H]2CC[C@@H]3[C@@H](CCN3S(=O)(=O)c3ccccc3)O2)n1 — lower, -14.9%
- Cc1nc(N2CCCN(c3ncccn3)CC2)c2cnn(C)c2n1 — higher, -3.77%
- CCOC(=O)c1sc2ccsc2c1CNC(=O)CC — higher, -3.4%
- COc1cc(CN2C[C@@H]3CNC(=O)[C@H](C)[C@@H]3C2)cc(OC)c1 — lower, -9.46%
- Cc1noc(C(C)N2CCN(c3ncnc4sccc34)CC2)n1 (centres undefined) — lower, -7.54%
- CS(=O)(=O)NC(=O)c1cc(Cl)c2c(c1)OCCCO2 — higher, 0.437%
- CCN(CC)C(=O)c1ccc(-n2ncc(C#N)c2N)cc1 — higher, 12.9%
- CN(C)c1cccc(C(=O)N2CCC(c3n[nH]c(C4CC4)n3)CC2)c1 — lower, -5.06%
- Cc1cccc2sc(NC(=O)CN3CCC(C)CC3)nc12 — lower, -7.07%
- CCn1c(Cn2cncn2)nnc1C1CCN(C2CCNCC2)CC1 — lower, -5.11%
- CC(C)c1nc(C2CCCN2CCN2CCCCC2)no1 (centres undefined) — lower, -5.16%
- CCn1ccnc1CN1CCN(CC(=O)NC(=O)NC2CC2)CC1 — lower, -8.53%
- N#CC1C(=O)Nc2c(cnn2C2CCCC2)C12CCCCC2 (centres undefined) — higher, -1.92%
- Cc1cc(CS(=O)(=O)NC2CCCCC2)on1 — lower, -15.3%
- CN1CCOC(CNCc2nc(-c3ccco3)no2)C1 (centres undefined) — higher, 2.27%
- Cn1cnc(S(=O)(=O)N2CC3(CCN(c4ccccc4)C3)C2)c1 — higher, 20.3%
- Cc1cc(NC(=O)C(C)Nc2cccc(COCc3ccco3)c2)on1 (centres undefined) — lower, -20.2%
- O=C1CCC(C(=O)Nc2ccc(=O)n(Cc3ccccc3Cl)c2)N1 (centres undefined) — higher, -4.13%
- Cc1cc(C(=O)N2CCOC(c3nc(C(C)C)n[nH]3)C2)no1 (centres undefined) — lower, -11.9%
- O=C(c1ccsc1)N1CCc2c(CNc3nccs3)n[nH]c2C1 — higher, -2.81%
- CCC(C)NC(=O)c1ccc(-c2ccco2)[nH]c1=O (centres undefined) — lower, -5.06%
- CCN1CC2(CC1=O)CN(Cc1cnn(C)c1)CCN(C(C)=O)C2 (centres undefined) — higher, -0.943%
- CCN(C1CCN(C(=O)c2cccc(Cl)c2)CC1)S(C)(=O)=O — lower, -6.65%
- CC(C)C(C(=O)N1CCCN(c2cccnn2)CC1)n1cncn1 (centres undefined) — higher, 4.13%
- COCCN1CCCC2(CCN(c3nc(C)nc4ccsc34)C2)C1=O (centres undefined) — lower, -11.8%
- Cc1[nH]ccc1C(=O)N1CCOCC12CCCC2 — higher, -0.873%
- Cn1ccc2cc(C(=O)NC3CCOC(C)(C)C3)ccc21 (centres undefined) — higher, 7.49%
- CC(=O)Nc1c(C)noc1/C=C\c1ccc(S(=O)(=O)NC2CC2)cc1 — higher, -1.71%
- O=C(O)c1ccn(-c2ccccc2NS(=O)(=O)c2ccccc2)n1 — higher, -0.995%
- COCCN1CCCC(c2ccnc3c(C(N)=O)cnn23)C1 (centres undefined) — higher, 3.17%
- Cc1cnc(NCC(C)(C)N2CCN(C)CC2)nc1 — higher, -0.355%
- CC(=O)NCC(=O)N1C[C@H](OCc2cccnc2)[C@H]2COC[C@H]21 — higher, 3.33%
- O=S(=O)(c1cccs1)N1CCCn2nnc(CN3CCCCC3)c2C1 — higher, 0.152%
- Cn1nc2c(cc1=O)CN(Cc1nc(C(C)(C)C)no1)CC2 — lower, -5.46%
- COc1ccc(CNCc2ccc(N3CCCCC3)nc2)cc1OC — lower, -4.42%
- COC(=O)CNC(=O)c1ccn(-c2ccc(Cl)c(Cl)c2)n1 — higher, -2.3%
- COCC(=O)N1CCN(Cc2cc(F)cc(Br)c2)CC1 — lower, -6.59%
- Cc1nc(COc2ccc(OC3CCCCNC3=O)cc2)oc1C (centres undefined) — higher, 1.82%
- O=C(NCCN1CCOCC1)c1nc(-c2ccc3[nH]ccc3c2)no1 — lower, -30.5%
- CN(C)C(=O)COC1COC2(CCN(S(C)(=O)=O)CC2)C1 (centres undefined) — lower, -6.01%
- O=C(NC1CC1)N1CCOCC2(CCN(Cc3cccs3)C2)C1 (centres undefined) — lower, -16%
- CC(=O)N1CCCC2(CCN(c3nncs3)C2)C1 (centres undefined) — higher, -4.07%
- Cc1cccc(NC(=O)C(C)Oc2ccc3c(c2)OCO3)n1 (centres undefined) — higher, -3.5%
- CCSCCNC(=O)C(c1cccc(F)c1)N(C)C (centres undefined) — lower, -6.8%
- CCC(=O)N1C[C@@H]2CCN(c3cnccn3)C[C@@H]2C1 — higher, 35.4%
- Cc1nnc2n1CCN(Cc1csc(-c3ccsc3)n1)C2 — lower, -5.37%
- CS(=O)(=O)NCCCNCc1cc(F)ccc1Br — higher, -2.01%
- CCOC(=O)C1(O)CCN(C(=O)Nc2ccc(CC)cc2)CC1 — higher, -4.17%
- CC[C@H](CO)NC(=O)c1coc(COc2cccc(F)c2F)n1 — higher, 9.55%
- Cc1cnn(Cc2ccc(NC(=O)N3CCCC3)cc2)c1 — higher, -3.9%
- Cc1nnc(CN(C)CC(=O)N2CCCC(C(F)(F)F)C2)n1C (centres undefined) — higher, 16.8%
- CC(C)(C#N)c1ccccc1CN1CCC(N2CCCC2=O)CC1 — higher, 13.9%
- Cc1ccc(CN(CCN(C)C)C(=O)Nc2cc(C(N)=O)ccc2C)s1 — higher, 21.3%
- Cc1noc(C)c1CN1CCc2ncc(CN3CCCC3)n2CC1 — lower, -5.92%
- CC(C(=O)Nc1ccccc1F)S(C)(=O)=O (centres undefined) — higher, 2.07%
- Cc1ccc(CC2COCCN(S(=O)(=O)c3ccccc3)C2)nc1 (centres undefined) — higher, -0.967%
